Where two headings read alike, the source gives them in different places.
Key:
[1] = in vitro; settings: human
[2] = target: PXR (Homo sapiens (Human), UniProt O75469); assay: Human PXR activation assay (luciferase reporter gene assay, DPX2 cells); type: cell-based; settings: human
Procedure: A stably transformed tumor cell line (DPX2) was plated on 96-well microtiter plates. DPX2 cells harbor the human PXR gene (NR112) and a luciferase reporter gene linked to two promoters identified in the human CYP3A4 gene, namely XREM and PXRE. […] The number of viable cells was determined and the reporter gene activity was assessed. Positive control: […]

[3] = target: OCT2 (Homo sapiens (Human), UniProt O15244); assay: OCT2 inhibition assay (14C-TEA uptake, OCT2-transfected MDCKII cells); type: cell-based
Sequence of OCT2 (O15244 whole entry): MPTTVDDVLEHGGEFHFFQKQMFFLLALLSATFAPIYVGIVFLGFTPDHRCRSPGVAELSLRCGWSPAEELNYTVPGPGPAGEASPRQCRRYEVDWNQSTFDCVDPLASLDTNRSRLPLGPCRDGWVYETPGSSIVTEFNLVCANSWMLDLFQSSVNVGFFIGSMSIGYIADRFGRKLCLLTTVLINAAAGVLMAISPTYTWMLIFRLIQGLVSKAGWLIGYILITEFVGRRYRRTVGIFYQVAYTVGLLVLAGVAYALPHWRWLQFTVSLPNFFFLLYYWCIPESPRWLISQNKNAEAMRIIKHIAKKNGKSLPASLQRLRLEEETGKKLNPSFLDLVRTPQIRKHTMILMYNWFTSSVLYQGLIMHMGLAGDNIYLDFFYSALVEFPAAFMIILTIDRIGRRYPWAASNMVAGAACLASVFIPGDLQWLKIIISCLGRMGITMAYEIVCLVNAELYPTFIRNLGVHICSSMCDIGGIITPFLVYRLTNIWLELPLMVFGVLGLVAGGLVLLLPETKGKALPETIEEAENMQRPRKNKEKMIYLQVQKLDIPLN
Procedure: On assay day, cells were trypsinized and resuspended in Krebs-Henseleit Buffer (KHB), pH 7.4 at […]. Cells were preincubated for 15 min in assay plate before addition of test compound or substrate. Test compounds were serially diluted in DMSO and then spiked (2 μL) into in 0.4 mL KHB buffer containing wild-type or OCT2-transfected cells and incubated for 10 minutes. Assay was initiated with the addition of 0.1 mL of 100 μM ^14C-TEA in KHB buffer (20 μM final concentration after mixing). The concentration of TEA is based on the Km. After 10 minutes of incubation, the assay mixture was quenched with addition of 0.5 mL of ice-cold 1×PBS buffer. Samples were then centrifuged at 1000 rpm for 5 min and supernatants were removed. Wash steps were repeated four times with ice-cold PBS. Finally, the cell pellets were lysed with 0.2N NaOH and let sit at room temperature for at least 30 min to ensure complete lysis. Samples were then counted on liquid scintillation counter and dpm counts were used to perform the following calculations.

[4] = Pharmacokinetic analysis following intravenous administration to beagle dogs; type: in vivo; settings: male, dog, 0.5 mg/kg; for MRT / clearance: beagle, in vivo, iv; for Vd: plasma, beagle dogs, IV infusion over 30 min, read-out: Vss
Procedure: Pharmacokinetic analysis was performed on various test compounds following intravenous or oral administration to beagle dogs.
For pharmacokinetic analysis of intravenously administered compounds, the test compounds were formulated in 5% Ethanol, 55% PEG 300, and 40% water at 0.1 mg/mL for IV infusion. For pharmacokinetic analysis of orally administered compounds, the test compounds were formulated as an aqueous suspension in 0.1% Tween 20, 0.5% HPMC LV 100 in Di Water at 1 mg/kg.
Each dosing group consisted of 3 male, non-naïve purebred beagle dogs. At dosing, the animals weighed between 10 to 13 kg. The animals were fasted overnight prior to dose administration and up to 4 hr after dosing. For studies of intravenous administration, the test article was administered to the animals by intravenous infusion over 30 min. The rate of infusion was adjusted according to the body weight of each animal to deliver a dose of 0.5 mg/kg. For studies of oral administration, the test article was administered according to the body weight of each animal to deliver a dose of 1 mg/kg.
For pharmacokinetic analysis of intravenously administered compounds, serial venous blood samples (approximately 1 mL each) were taken from each animal at 0, 0.250, 0.483, 0.583, 0.750, 1.00, 1.50, 2.00, 4.00, 8.00, 12.0, and 24.0 hours after dosing. The blood samples were collected into Vacutainer™ tubes containing EDTA-K2 as the anti-coagulant and were immediately placed on wet ice pending centrifugation for plasma. An LC/MS/MS method was used to measure the concentration of the test compound in plasma. An aliquot of 100 μL of each plasma sample was added to a clean 96 well plate, and 400 μL of cold acetonitrile/internal standard solution (ACN)/(ISTD) was added. After protein precipitation, an aliquot of 110 μL of the supernatant was transferred to a clean 96-well plate and diluted with 300 μL of water. An aliquot of 25 μL of the above solution was injected into a TSQ Quantum Ultra LC/MS/MS system utilizing a Hypersil Gold C18 HPLC column (50×3.0 mm, 5 μm; Thermo-Hypersil Part #25105-053030). An Agilent 1200 series binary pump (P/N G1312A Bin Pump) was used for elution and separation, and an HTS Pal autosampler (LEAP Technologies, Carrboro, N.C.) was used for sample injection. A TSQ Quantum Ultra triple quadrupole mass spectrometer was utilized in selective reaction monitoring mode (Thermo Finnigan, San Jose, Calif.). Liquid chromatography was performed using two mobile phases: mobile phase A contained 1% acetonitrile in 2.5 mM ammonium formate aqueous solution with pH of 3.0, and mobile phase B contained 90% acetonitrile in 10 mM ammonium formate with pH of 4.6. Non-compartmental pharmacokinetic analysis was performed on the plasma concentration-time data. The resulting data are shown in the first three columns of Table 4. In Table 4, CL refers to clearance, which characterizes the rate at which drug is removed from plasma. The lower the clearance of a drug is, the longer the elimination half-life is in the body. Vss refers to the steady state volume of distribution and indicates how well a drug is distributed into the tissues. The larger the Vss is, the longer the elimination half-life is in the body. MRT refers to mean residence time, which is a measure of the average time molecules exist in the body.

[5] = 15 μM, relative to maximum fold induction by 10 or 20 μM rifampicin, DPX2 cells, 24 hours, read-out: % Emax at 15 μM
[6] = MT-4 cells, mock-infected, CC50 nM in MT-4, MT-4 cells, 5 days incubation
[7] = OCT2 mediated uptake of 14C-TEA (20 μM), MDCKII cells, read-out: IC50

Sequence of PXR (O75469 whole entry): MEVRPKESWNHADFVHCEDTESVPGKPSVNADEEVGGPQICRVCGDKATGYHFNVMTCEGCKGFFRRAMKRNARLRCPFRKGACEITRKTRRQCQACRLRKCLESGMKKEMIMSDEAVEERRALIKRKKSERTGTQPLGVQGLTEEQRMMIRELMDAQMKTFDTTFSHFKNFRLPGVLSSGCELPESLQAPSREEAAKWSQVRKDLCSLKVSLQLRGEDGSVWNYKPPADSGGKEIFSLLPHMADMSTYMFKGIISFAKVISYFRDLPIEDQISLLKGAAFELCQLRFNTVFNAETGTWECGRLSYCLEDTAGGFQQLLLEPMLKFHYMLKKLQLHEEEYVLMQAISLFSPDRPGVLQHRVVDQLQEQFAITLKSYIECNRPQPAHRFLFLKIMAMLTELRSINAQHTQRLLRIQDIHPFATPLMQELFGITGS

| SMILES | CC50 at 5 days ([1]; CC50 nM in MT-4) | Emax at 24 h, 15 µM [2, 5] | IC50 [3] | IC50 [3, 7] | Emax at 24 h, 15 µM [2] | further results |
| --- | --- | --- | --- | --- | --- | --- |
| CC1CC2CC1OC1Cn3cc(C(=O)NCc4ccc(F)cc4F)c(=O)c(O)c3C(=O)N21 (single isomer, unassigned) [Compound 40] | 9560 nM | 0% | 0.204 µM | – | – | – |
| O=C(NCc1c(F)cc(F)cc1F)c1cn2c(c(O)c1=O)C(=O)N1[C@H]3C[C@H](C3)[C@H]1C2 (single isomer, unassigned) [Compound 96] | – | 11% | – | 1.36 µM | – | CC50 at 5 days [1, 6]: 26600 nM |
| O=C(NCc1ccc(F)cc1F)c1cn2c(c(O)c1=O)C(=O)N1C(C2)[C@H]2CC[C@@H]1C2 (stereo in doubt) [Compound 48, (1S,4R,12aS)-N-(2,4-difluorobenzyl)-7-hydroxy-6,8-dioxo-1,2,3,4,6,8,12,12a-octahydro-1,4-methanodipyrido[1,2-a:1′,2′-d]pyrazine-9-carboxamide] | 14000 nM | 5% | 4.91 µM | – | – | – |
| C[C@@H]1CCO[C@H]2Cn3cc(C(=O)NC4(c5ccc(F)cc5F)CC4)c(=O)c(O)c3C(=O)N12 [Compound 5, (4R,12aS)-N-(1-(2,4-difluorophenyl)cyclopropyl)-7-hydroxy-4-methyl-6,8-dioxo-3,4,6,8,12,12a-hexahydro-2H-[1,3]oxazino[3,2-d]pyrido[1,2-a]pyrazine-9-carboxamide] | – | 32% | – | 2.23 µM | – | CC50 at 5 days [1, 6]: 10500 nM |
| O=C(NCc1ccc(F)cc1F)c1cn2c(c(O)c1=O)C(=O)N1C(C2)O[C@H]2CCC[C@@H]1C2 (stereo partly drawn) [Compound 7, (2S,6R)-N-(2,4-difluorobenzyl)-9-hydroxy-8,10-dioxo-3,4,5,6,8,10,14,14a-octahydro-2H-2,6-methanopyrido[1′,2′:4,5]pyrazino[2,1-b][1,3]oxazocine-11-carboxamide] | 15600 nM | – | – | – | 6% | MRT [4]: 2.3 h; clearance [4]: 8.5 mL/min/kg; Vd [4]: 1.2 L/kg |
| O=C(NCc1ccc(F)cc1F)c1cn2c(c(O)c1=O)C(=O)N1C(C2)O[C@@H]2CCC[C@H]1C2 (stereo partly drawn) [Compound 8, (2R,6S)-N-(2,4-difluorobenzyl)-9-hydroxy-8,10-dioxo-3,4,5,6,8,10,14,14a-octahydro-2H-2,6-methanopyrido[1′,2′:4,5]pyrazino[2,1-b][1,3]oxazocine-11-carboxamide] | 13900 nM | – | – | – | 7% | MRT [4]: 1.8 h; clearance [4]: 8.3 mL/min/kg; Vd [4]: 0.87 L/kg |
| C[C@@H](NC(=O)c1cn2c(c(O)c1=O)C(=O)N1[C@@H]3CC[C@@H](C3)O[C@H]1C2)c1ccc(F)cc1F [Compound 11, (2S,5R,13aS)-N—((R)-1-(2,4-difluorophenyl)ethyl)-8-hydroxy-7,9-dioxo-2,3,4,5,7,9,13,13a-octahydro-2,5-methanopyrido[1′,2′:4,5]pyrazino[2,1-b][1,3]oxazepine-10-carboxamide] | 10300 nM | – | 10 µM | – | – | – |
| C[C@H](NC(=O)c1cn2c(c(O)c1=O)C(=O)N1[C@@H]3CC[C@@H](C3)O[C@H]1C2)c1ccc(F)cc1F [Compound 13, (2S,5R,13aS)-N—((S)-1-(2,4-difluorophenyl)ethyl)-8-hydroxy-7,9-dioxo-2,3,4,5,7,9,13,13a-octahydro-2,5-methanopyrido[1′,2′:4,5]pyrazino[2,1-b][1,3]oxazepine-10-carboxamide] | 12700 nM | – | 0.61 µM | – | – | – |
| O=C(N[C@@H](c1ccc(F)cc1F)C(F)(F)F)c1cn2c(c(O)c1=O)C(=O)N1C(C2)O[C@H]2CC[C@@H]1C2 (stereo partly drawn) [Compound 36, (2S,5R)-N—((S)-1-(2,4-difluorophenyl)-2,2,2-trifluoroethyl)-8-hydroxy-7,9-dioxo-2,3,4,5,7,9,13,13a-octahydro-2,5-methanopyrido[1′,2′:4,5]pyrazino[2,1-b][1,3]oxazepine-10-carboxamide] | 11400 nM | – | 10 µM | – | 3% | – |
| C[C@H]1C[C@@H]2C[C@H]1O[C@H]1Cn3cc(C(=O)NCc4ccc(F)cc4F)c(=O)c(O)c3C(=O)N21 [Compound 39, (2R,3S,5R,3aS)-N-(2,4-difluorobenzyl)-8-hydroxy-3-methyl-7,9-dioxo-2,3,4,5,7,9,13,13a-octahydro-2,5-methanopyrido[1′,2′:4,5]pyrazino[2,1-b][1,3]oxazepine-10-carboxamide] | 12200 nM | 6% | 0.358 µM | – | – | – |
| O=C(NCc1c(F)cc(F)cc1F)c1cn2c(c(O)c1=O)C(=O)N1[C@@H]3CC[C@@H](C3)O[C@H]1C2 [Compound 45, (13aS)-8-hydroxy-7,9-dioxo-N-(2,4,6-trifluorobenzyl)-2,3,4,5,7,9,13,13a-octahydro-2,5-methanopyrido[1′,2′:4,5]pyrazino[2,1-b][1,3]oxazepine-10-carboxamide] | – | 19% | – | 0.137 µM | – | CC50 at 5 days [1, 6]: 15800 nM |
| O=C(NCc1ccc(F)cc1Cl)c1cn2c(c(O)c1=O)C(=O)N1[C@H]3CC[C@H](C3)O[C@@H]1C2 [Compound 63, (2R,5S,13aR)-N-(2-chloro-4-fluorobenzyl)-8-hydroxy-7,9-dioxo-2,3,4,5,7,9,13,13a-octahydro-2,5-methanopyrido[1′,2′:4,5]pyrazino[2,1-b][,3]oxazepine-10-carboxamide] | 3160 nM | 13% | – | 0.042 µM | – | – |
| O=C(NCc1cc(F)c(F)cc1F)c1cn2c(c(O)c1=O)C(=O)N1[C@H]3CC[C@H](C3)O[C@@H]1C2 [Compound 64, (2R,5S,13aR)-8-hydroxy-7,9-dioxo-N-(2,4,5-trifluorobenzyl)-2,3,4,5,7,9,13,13a-octahydro-2,5-methanopyrido[1′,2′:4,5]pyrazino[2,1-b][1,3]oxazepine-10-carboxamide] | 3330 nM | – | – | 0.094 µM | 8% | – |
| O=C(NCc1c(F)cc(F)cc1F)c1cn2c(c(O)c1=O)C(=O)N1[C@@H]3C[C@@H](C[C@H]3F)[C@@H]1C2 [Compound 82, (1S,3R,4R,12aR)-3-fluoro-7-hydroxy-6,8-dioxo-N-(2,4,6-trifluorobenzyl)-1,2,3,4,6,8,12,12a-octahydro-1,4-methanodipyrido[1,2-a:1′,2′-d]pyrazine-9-carboxamide] | 30400 nM | – | 10 µM | – | 1% | – |
| C[C@H]1C[C@@H]2C[C@H]1N1C(=O)c3c(O)c(=O)c(C(=O)NCc4c(F)cc(F)cc4F)cn3C[C@@H]21 [Compound 99, (1R,3S,4R,12aR)-7-hydroxy-3-methyl-6,8-dioxo-N-(2,4,6-trifluorobenzyl)-1,2,3,4,6,8,12,12a-octahydro-1,4-methanodipyrido[1,2-a:1′,2′-d]pyrazine-9-carboxamide] | 8480 nM | – | 1.51 µM | – | 17% | – |

From patent US9663528B2, “Substituted 1,2,3,4,6,8,12,12a-octahydro-1,4-methanodipyrido[1,2-a:1',2'-d]pyrazines and methods for treating viral infections” (priority 2012, dated 2017)
